Assay results reported in ChEMBL document CHEMBL1201862, “PubChem BioAssay data set” (2004).
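Dose response: 5 concentrations. Exposure: 48 h. Format: 96-well plates. Endpoint: linear interpolation; highest concentration if not reached. GI50 marks 50% less growth.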 Active and inactive are the calls of the source. No stated cut-off is given here; in the data, active = GI50 up to about 1.1 µM and inactive = higher.

Assays:
Test in all cases: DTP human tumour cell line panel, 48 h
[1] = test system: 786-0
[2] = test system: A549
[3] = test system: CCRF-CEM
[4] = test system: EKVX
[5] = test system: HCC 2998
[6] = test system: HCT-116
[7] = test system: M14
[8] = test system: Malme-3M
[9] = test system: NCI-H522
[10] = test system: RXF 393
[11] = test system: SF-268
[12] = test system: SF-539
[13] = test system: SK-MEL-28
[14] = test system: SK-MEL-2
[15] = test system: SK-MEL-5
[16] = test system: SK-OV-3
[17] = test system: SNB-19
[18] = test system: SW-620
[19] = test system: TK-10
[20] = test system: U-251

Row | Structure (SMILES) | GI50 [1] | GI50 [2] | GI50 [3] | GI50 [4] | GI50 [5] | GI50 [6] | GI50 [7] | GI50 [8] | GI50 [9] | GI50 [10] | GI50 [11] | GI50 [12] | GI50 [13] | GI50 [14] | GI50 [15] | GI50 [16] | GI50 [17] | GI50 [18] | GI50 [19] | GI50 [20]
1 | COc1ccc(C2c3cc4c(cc3OC(NNC(N)=O)C2C)OCO4)cc1 (stereo not given) | 5.26 µM (inactive) | 7.73 µM (inactive) | 2.95 µM (inactive) | 21.5 µM (inactive) | 8.51 µM (inactive) | 4.7 µM (inactive) | 6.41 µM (inactive) | 6.67 µM (inactive) | 3.45 µM (inactive) | 6.92 µM (inactive) | 11.2 µM (inactive) | 1.16 µM (inactive) | 7.23 µM (inactive) | 10.8 µM (inactive) | 6.85 µM (inactive) | 5.26 µM (inactive) | 13.7 µM (inactive) | 3.56 µM (inactive) | 25.8 µM (inactive) | 4.95 µM (inactive)
2 | CCOC(=O)CC[C@H](N)C(=O)N[C@H](Cc1ccc(N(CCCl)CCCl)cc1)C(=O)OCC | 0.703 µM (active) | 3.54 µM (inactive) | 1.96 µM (inactive) | 6.03 µM (inactive) | 1.2 µM (inactive) | 5.78 µM (inactive) | 1.42 µM (inactive) | 4.94 µM (inactive) | 1.41 µM (inactive) | 0.879 µM (active) | 0.414 µM (active) | 1.99 µM (inactive) | 25.8 µM (inactive) | 12.3 µM (inactive) | 45.3 µM (inactive) | 4.54 µM (inactive) | 16.1 µM (inactive) | 3.56 µM (inactive) | 2.26 µM (inactive) | 6.47 µM (inactive)
3 | CCOC(=O)C1(Cc2ccccc2)C=CN(C(=O)c2ccccc2)C=C1 | 43.7 µM (inactive) | 42.4 µM (inactive) | 20.9 µM (inactive) | 32.9 µM (inactive) | 63.4 µM (inactive) | 29.8 µM (inactive) | 35.5 µM (inactive) | 26.6 µM (inactive) | 24.5 µM (inactive) | 27.5 µM (inactive) | 47.4 µM (inactive) | 42.9 µM (inactive) | 30.8 µM (inactive) | 18.1 µM (inactive) | 15.1 µM (inactive) | > 100 µM (inactive) | 46.5 µM (inactive) | 32.2 µM (inactive) | 28.4 µM (inactive) | 29.2 µM (inactive)
4 | CC(=O)NC(=O)/N=C1\NCCC(=O)N1CCc1c[nH]c2ccccc12 | > 100 µM (inactive) | > 100 µM (inactive) | > 100 µM (inactive) | > 100 µM (inactive) | > 100 µM (inactive) | > 100 µM (inactive) | > 100 µM (inactive) | > 100 µM (inactive) | > 100 µM (inactive) | > 100 µM (inactive) | > 100 µM (inactive) | > 100 µM (inactive) | > 100 µM (inactive) | > 100 µM (inactive) | > 100 µM (inactive) | > 100 µM (inactive) | > 100 µM (inactive) | > 100 µM (inactive) | > 100 µM (inactive) | > 100 µM (inactive)
5 | CCCCCOC(=O)C(=O)Nc1[nH]nnc1C(N)=O | > 100 µM (inactive) | > 100 µM (inactive) | > 100 µM (inactive) | > 100 µM (inactive) | > 100 µM (inactive) | > 100 µM (inactive) | > 100 µM (inactive) | > 100 µM (inactive) | > 100 µM (inactive) | > 100 µM (inactive) | > 100 µM (inactive) | > 100 µM (inactive) | > 100 µM (inactive) | > 100 µM (inactive) | > 100 µM (inactive) | > 100 µM (inactive) | > 100 µM (inactive) | > 100 µM (inactive) | > 100 µM (inactive) | > 100 µM (inactive)
6 | NCCCCCS(=O)(=O)O | > 100 µM (inactive) | > 100 µM (inactive) | > 100 µM (inactive) | > 100 µM (inactive) | > 100 µM (inactive) | > 100 µM (inactive) | > 100 µM (inactive) | > 100 µM (inactive) | > 100 µM (inactive) | > 100 µM (inactive) | > 100 µM (inactive) | > 100 µM (inactive) | > 100 µM (inactive) | > 100 µM (inactive) | > 100 µM (inactive) | > 100 µM (inactive) | > 100 µM (inactive) | > 100 µM (inactive) | > 100 µM (inactive) | > 100 µM (inactive)
7 | COc1ccc(-c2nc(SCC(=O)NNC(=S)Nc3ccccc3)[nH]c2-c2ccc(OC)cc2)cc1 | 23.7 µM (inactive) | 31.5 µM (inactive) | 22.7 µM (inactive) | 28.8 µM (inactive) | 14 µM (inactive) | 25.8 µM (inactive) | 17.7 µM (inactive) | 52.2 µM (inactive) | 22.7 µM (inactive) | 16.9 µM (inactive) | 25.9 µM (inactive) | 15.7 µM (inactive) | 24.3 µM (inactive) | 18.4 µM (inactive) | 14.9 µM (inactive) | 27.2 µM (inactive) | 21.8 µM (inactive) | 26.9 µM (inactive) | 40.6 µM (inactive) | 17.5 µM (inactive)
